In brackets after ≈: the same amount, converted by molar mass.
system: Toxoplasma gondii; assay: Antiparasitic activity against Toxoplasma gondii RH infected in human HFF cells assessed as reduction in parasitic growth; assay type: functional, organism-based; details: not given

Row | SMILES | IC50 [nM]
1 | Cn1cc(-c2ccc3c(c2)CCN3C(=O)Cc2cccc(C(F)(F)F)c2)c2c(N)ncnc21 | < 1000
2 | N=C(N)N/N=C/c1c(Cl)cccc1Cl [GUANABENZ] | 6000

system: not listed separately; assay: Inhibition of Toxoplasma gondii Farnesyl pyrophosphate synthase; details: not given

Row | SMILES | IC50 [nM]
3 | CCCCCCNCC(O)(P(=O)(O)O)P(=O)(O)O | 4700
4 | O=C(CCCCSc1nc(-c2ccc(-c3ccccc3)cc2)cc(=O)[nH]1)NO | 34
5 | CC[C@]1(C)NC(=O)[C@H](CCCCCC(=O)[C@@H](C)OC(C)=O)NC(=O)[C@H]2C[C@H](C)CN2C(=O)[C@H](Cc2ccccc2)NC1=O | 10.2
6 | CCCCCCCCCCS(=O)(=O)CC(P(=O)(O)O)P(=O)(O)O | 110
7 | CC[C@]1(C)NC(=O)[C@H](CCCCCC(=O)[C@@H](C)OC(=O)Oc2ccccc2)NC(=O)[C@H]2C[C@H](C)CN2C(=O)[C@H](Cc2ccccc2)NC1=O | 11.3
8 | COc1cccc(CC(=O)Nc2ccc(C(=O)NO)cc2)c1 | 560

target: T1, Bifunctional dihydrofolate reductase-thymidylate synthase (Toxoplasma gondii, UniProt Q07422); assay: Inhibition of Toxoplasma gondii thymidylate synthase; details: not given
T1 sequence (Q07422 whole entry): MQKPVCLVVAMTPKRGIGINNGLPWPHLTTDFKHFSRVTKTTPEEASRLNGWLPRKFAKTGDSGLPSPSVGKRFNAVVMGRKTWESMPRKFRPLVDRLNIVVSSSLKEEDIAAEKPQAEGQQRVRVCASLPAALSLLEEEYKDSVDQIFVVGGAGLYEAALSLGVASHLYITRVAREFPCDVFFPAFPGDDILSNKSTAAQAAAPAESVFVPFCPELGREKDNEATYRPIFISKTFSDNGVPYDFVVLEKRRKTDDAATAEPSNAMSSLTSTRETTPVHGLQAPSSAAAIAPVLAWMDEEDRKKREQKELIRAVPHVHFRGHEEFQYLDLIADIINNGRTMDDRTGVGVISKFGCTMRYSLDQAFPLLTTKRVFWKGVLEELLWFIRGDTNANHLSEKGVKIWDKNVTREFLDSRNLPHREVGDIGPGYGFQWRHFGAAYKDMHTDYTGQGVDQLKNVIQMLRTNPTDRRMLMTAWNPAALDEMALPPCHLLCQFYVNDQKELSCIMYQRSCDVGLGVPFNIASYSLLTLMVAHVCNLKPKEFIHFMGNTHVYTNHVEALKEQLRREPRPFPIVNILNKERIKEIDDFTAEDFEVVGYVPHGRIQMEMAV

Row | SMILES | IC50 [nM]
9 | C[C@H](NC(=O)OC(C)(C)C)C(=O)OC1O[C@@H]2O[C@@]3(C)CC[C@H]4[C@H](C)CC[C@@H]([C@H]1C)[C@@]24OO3 (some centres undefined) | 41000
10 | C[C@H]1[C@H](N2CCS(=O)(=O)CC2)O[C@@H]2O[C@@]3(C)CC[C@H]4[C@H](C)CC[C@@H]1[C@@]24OO3 [ARTEMIFONE] | 120
11 | C[C@H]1[C@H](N2CCSCC2)O[C@@H]2O[C@@]3(C)CC[C@H]4[C@H](C)CC[C@@H]1[C@@]24OO3 [ARTEMISIDE] | 100

system: not listed separately; assay: Cytotoxicity against African green monkey Vero cells by MTT assay; assay type: toxicity, cell-based; details: African green monkey (Chlorocebus sabaeus)

Row | SMILES | IC50
12 | C/C(=N\Nc1nc(-c2ccc(Cl)c(Cl)c2)cs1)c1ccc(Nc2nc(N)nc(N)n2)cc1 | 14.9 µg/mL
13 | NC(=S)N/N=C(/COc1ccc(F)cc1)c1ccc(Cl)cc1 | 1190 nM
14 | Fc1ccc(-c2csc(N/N=C/C3CC3)n2)cc1 | 18 µg/mL
15 | COc1ccc(/C(COc2ccc(F)cc2)=N\NC(N)=S)cc1 | 1090 nM

system: Toxoplasma gondii; assay: Antiparasitic activity against Toxoplasma gondii; assay type: functional, organism-based; details: not given

Row | SMILES | IC50 [nM]
16 | NC(=S)N/N=C(/COc1ccc(F)cc1)c1ccc(Cl)cc1 | 1190
17 | COc1ccc(/C(COc2ccc(F)cc2)=N\NC(N)=S)cc1 | 1090

system: Toxoplasma gondii; assay: Antiparasitic activity against Toxoplasma gondii RH infected in human HFF cells; assay type: functional, organism-based; details: not given

Row | SMILES | IC50 [µg/mL]
18 | Fc1ccc(-c2csc(N/N=C/C3CC3)n2)cc1 | 18.1 (≈ 69.2 µM)

system: not listed separately; assay: Cytotoxicity against African green monkey Vero cells assessed as reduction in cell viability by MTT assay; assay type: toxicity, cell-based; details: African green monkey (Chlorocebus sabaeus)

Row | SMILES | IC50 [µg/mL]
19 | C=CCSSSC | 66 (≈ 433 µM)
20 | CC1=CC[C@H]2[C@H]3[C@@H]1[C@]2(C)CC[C@H]3C(C)C | 9.94 (≈ 48.6 µM)
21 | COC(=O)/C=C(\C)CCC=C(C)C | 9 (≈ 49.4 µM)
22 | C=CCSSSCC=C [ALLITRIDIN] | 28 (≈ 157 µM)
23 | CC(C)=CCC/C(C)=C/C=O [CITRAL] | 9 (≈ 59.1 µM)
24 | C=CCSSCC=C [DIALLYLDISULFIDE] | 66.9 (≈ 457 µM)

— ChEMBL document CHEMBL6078659, “Comprehensive Insights into the Development of Antitoxoplasmosis Drugs: Current Advances, Obstacles, and Future Perspectives” (J Med Chem, 2024)
